Reference: PMC2789237 (Analytical Biochemistry, 2010)

Legend:
[1] = target: T1, pteridine reductase 1 (TbPTR1) (Trypanosoma brucei, UniProt O76290); experiment: cocrystal structure of ternary complex with DDD00066641; assay type: binding
T1 construct: gene PTR1; N-terminal hexahistidine-tagged protein
T1 sequence (O76290 1-268): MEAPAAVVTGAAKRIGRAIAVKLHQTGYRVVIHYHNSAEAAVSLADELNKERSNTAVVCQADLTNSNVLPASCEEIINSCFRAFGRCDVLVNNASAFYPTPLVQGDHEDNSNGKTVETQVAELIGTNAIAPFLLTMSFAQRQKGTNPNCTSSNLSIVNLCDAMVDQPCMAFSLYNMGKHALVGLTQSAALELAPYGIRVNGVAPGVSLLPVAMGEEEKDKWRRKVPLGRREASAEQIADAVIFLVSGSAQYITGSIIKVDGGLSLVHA

[2] = target: T1, pteridine reductase 1 (TbPTR1); experiment: cocrystal structure of ternary complex; cyt c-coupled enzyme inhibition assay; assay type: biochemical
[3] = substrate: NC(=O)C1=CN([C@@H]2O[C@H](COP(=O)(O)OP(=O)(O)OC[C@H]3O[C@@H](n4cnc5c(N)ncnc54)[C@H](OP(=O)(O)O)[C@@H]3O)[C@@H](O)[C@H]2O)C=CC1; experiment: HPLC enzyme kinetics (Km app, data not shown); assay type: biochemical, Trypanosoma brucei; details: varied: cofactor
[4] = substrate: C[C@H](O)[C@H](O)C1=Nc2c(nc(N)[nH]c2=O)NC1; experiment: HPLC enzyme kinetics (Km app), with substrate inhibition; assay type: biochemical, Trypanosoma brucei; details: NADPH

Question: Which “cocrystal structure of ternary complex with DDD00066641” value [1] does the source give for `NC(=O)c1ccc[n+]([C@@H]2O[C@H](COP(=O)(O)OP(=O)(O)OC[C@H]3O[C@@H](n4cnc5c(N)ncnc54)[C@H](OP(=O)(O)O)[C@@H]3O)[C@@H](O)[C@H]2O)c1` [NADP+] here?
Answer: The structure of the ternary complex of TbPTR1 with this ligand and the cofactor NADP^+ was obtained by cocrystallization

Question: How did the Ki [2] turn out when `Cc1ccc(-c2ccc3nc(N)nc(N)c3c2)cc1` [DDD00066641, 6-p-tolylquinazoline-2,4-diamine] was run?
Answer: 3 ± 0.8 nM

B1: pteridine reductase 1 (TbPTR1) (Trypanosoma brucei brucei) (protein)
chain: MEAPAAVVTGAAKRIGRAIAVKLHQTGYRVVIHYHNSAEAAVSLADELNKERSNTAVVCQADLTNSNVLPASCEEIINSCFRAFGRCDVLVNNASAFYPTPLVQGDHEDNSNGKTVETQVAELIGTNAIAPFLLTMSFAQRQKGTNPNCTSSNLSIVNLCDAMVDQPCMAFSLYNMGKHALVGLTQSAALELAPYGIRVNGVAPGVSLLPVAMGEEEKDKWRRKVPLGRREASAEQIADAVIFLVSGSAQYITGSIIKVDGGLSLVHA
notes: N-terminal hexahistidine-tagged protein
Question: For B1, which Km [3] is on record?
Answer: 1.6 ± 0.1 µM

Question: And the Km [4]?
Answer: 0.025 ± 0.0067 µM
